In the supplement of paper PMC10307832:

Legend:
Assay in all cases: relative viability (nuclei count vs DMSO), 5 days (fraction); higher = more cells survive
[1] = system: NCI-H1944
How it was run: (§1)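 Relative viability is defined as nuclei in treated wells over nuclei in vehicle wells. Duplicate plates were run and medians reported. Lung cancer cell lines in 1536-well plates were dosed by pin tool one day after seeding, with one drug or with a fixed anchor-drug dose plus five library-drug doses (not always all listed) in √10 steps, and nuclei were counted after 5 days.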

[2] = system: HCC-44
How it was run: as §1

[3] = system: NCI-H322M
How it was run: as §1

[4] = system: NCI-H358
How it was run: as §1

[5] = system: ABC-1
How it was run: as §1

[6] = system: HCC-827
How it was run: as §1

[7] = system: NCI-H1793
How it was run: as §1

[8] = system: LU99A
How it was run: as §1

[9] = system: NCI-H1792
How it was run: as §1

[10] = system: ChaGo-K-1
How it was run: as §1

[11] = system: NCI-H2126
How it was run: as §1

[12] = system: NCI-H1395
How it was run: as §1

[13] = system: NCI-H1666
How it was run: as §1

[14] = system: NCI-H3122
How it was run: as §1

[15] = system: CAL-12T
How it was run: as §1

[16] = system: NCI-H2347
How it was run: as §1

[17] = system: LXF-289
How it was run: as §1

[18] = system: RERF-LC-KJ
How it was run: as §1

[19] = system: SK-LU-1
How it was run: as §1

[20] = system: NCI-H520
How it was run: as §1

[21] = system: NCI-H1755
How it was run: as §1

[22] = system: LCLC-103H
How it was run: as §1

With Cc1cn(-c2cc(NC(=O)c3ccc(C)c(Nc4nccc(-c5cccnc5)n4)c3)cc(C(F)(F)F)c2)cn1 [Nilotinib] + O=C(c1cc(Cc2n[nH]c(=O)c3ccccc23)ccc1F)N1CCN(C(=O)C2CC2)CC1 [Olaparib] (partner 8 µM) the relative viability ([1]; first compound 0.001 µM) was 0.379, the relative viability ([1]; first compound 0.003162 µM) was 0.397 and the relative viability ([1]; first compound 0.01 µM) was 0.462. It also gave a relative viability ([1]; first compound 0.03162 µM) of 0.435, a relative viability ([1]; first compound 0.1 µM) of 0.45 and a relative viability ([2]; first compound 0.001 µM) of 0.895. The relative viability ([2]; first compound 0.003162 µM) was 0.97, the relative viability ([2]; first compound 0.01 µM) was 0.976 and the relative viability ([2]; first compound 0.1 µM) was 0.983. It also gave a relative viability ([3]; first compound 0.001 µM) of 0.737, a relative viability ([3]; first compound 0.003162 µM) of 0.712 and a relative viability ([3]; first compound 0.01 µM) of 0.678. The relative viability ([3]; first compound 0.03162 µM) was 0.556, the relative viability ([3]; first compound 0.1 µM) was 0.818 and the relative viability ([4]; first compound 0.001 µM) was 0.546. The relative viability ([4]; first compound 0.003162 µM) was 0.721, the relative viability ([4]; first compound 0.01 µM) was 0.813 and the relative viability ([4]; first compound 0.03162 µM) was 0.52. It also gave a relative viability ([4]; first compound 0.1 µM) of 0.539, a relative viability ([5]; first compound 0.001 µM) of 0.671 and a relative viability ([5]; first compound 0.003162 µM) of 0.873. For the same molecule, the relative viability ([5]; first compound 0.01 µM) was 0.778, the relative viability ([5]; first compound 0.03162 µM) was 0.828 and the relative viability ([5]; first compound 0.1 µM) was 0.673. The relative viability ([6]; first compound 0.001 µM) was 0.637, the relative viability ([6]; first compound 0.003162 µM) was 0.741 and the relative viability ([6]; first compound 0.03162 µM) was 0.49. The relative viability ([6]; first compound 0.1 µM) was 0.689, the relative viability ([7]; first compound 0.001 µM) was 0.863 and the relative viability ([7]; first compound 0.003162 µM) was 0.822. It also gave a relative viability ([7]; first compound 0.01 µM) of 1.13, a relative viability ([7]; first compound 0.03162 µM) of 0.706 and a relative viability ([7]; first compound 0.1 µM) of 0.677. For the same molecule, the relative viability ([8]; first compound 0.001 µM) was 0.2, the relative viability ([8]; first compound 0.003162 µM) was 0.201 and the relative viability ([8]; first compound 0.03162 µM) was 0.221. The relative viability ([8]; first compound 0.1 µM) was 0.164, the relative viability ([9]; first compound 0.001 µM) was 0.312 and the relative viability ([9]; first compound 0.003162 µM) was 0.535. For the same molecule, the relative viability ([9]; first compound 0.01 µM) was 0.456, the relative viability ([9]; first compound 0.03162 µM) was 0.258 and the relative viability ([9]; first compound 0.1 µM) was 0.319. It also gave a relative viability ([10]; first compound 0.001 µM) of 0.419, a relative viability ([10]; first compound 0.003162 µM) of 0.476 and a relative viability ([10]; first compound 0.01 µM) of 0.478. The relative viability ([10]; first compound 0.03162 µM) was 0.464, the relative viability ([10]; first compound 0.1 µM) was 0.412 and the relative viability ([11]; first compound 0.001 µM) was 0.902. It also gave a relative viability ([11]; first compound 0.003162 µM) of 1.03, a relative viability ([11]; first compound 0.01 µM) of 1.11 and a relative viability ([11]; first compound 0.03162 µM) of 0.876. It also gave a relative viability ([11]; first compound 0.1 µM) of 0.83, a relative viability ([12]; first compound 0.001 µM) of 0.472 and a relative viability ([12]; first compound 0.01 µM) of 0.473. For the same molecule, the relative viability ([12]; first compound 0.03162 µM) was 0.493, the relative viability ([12]; first compound 0.1 µM) was 0.455 and the relative viability ([13]; first compound 0.001 µM) was 0.71. For the same molecule, the relative viability ([13]; first compound 0.003162 µM) was 0.805, the relative viability ([13]; first compound 0.01 µM) was 0.803 and the relative viability ([13]; first compound 0.03162 µM) was 0.778. The relative viability ([13]; first compound 0.1 µM) was 0.754, the relative viability ([14]; first compound 0.001 µM) was 0.591 and the relative viability ([14]; first compound 0.003162 µM) was 0.688. The relative viability ([14]; first compound 0.01 µM) was 0.848, the relative viability ([14]; first compound 0.03162 µM) was 0.515 and the relative viability ([14]; first compound 0.1 µM) was 0.721. It also gave a relative viability ([15]; first compound 0.001 µM) of 0.648, a relative viability ([15]; first compound 0.003162 µM) of 0.677 and a relative viability ([15]; first compound 0.01 µM) of 0.738. The relative viability ([15]; first compound 0.03162 µM) was 0.67, the relative viability ([15]; first compound 0.1 µM) was 0.793 and the relative viability ([16]; first compound 0.001 µM) was 0.559. It also gave a relative viability ([16]; first compound 0.003162 µM) of 0.664, a relative viability ([16]; first compound 0.01 µM) of 0.633 and a relative viability ([16]; first compound 0.03162 µM) of 0.57. For the same molecule, the relative viability ([16]; first compound 0.1 µM) was 0.493, the relative viability ([17]; first compound 0.001 µM) was 1.07 and the relative viability ([17]; first compound 0.003162 µM) was 1.37. It also gave a relative viability ([17]; first compound 0.01 µM) of 1.26, a relative viability ([17]; first compound 0.03162 µM) of 1 and a relative viability ([17]; first compound 0.1 µM) of 1.06. It also gave a relative viability ([18]; first compound 0.001 µM) of 0.816, a relative viability ([18]; first compound 0.003162 µM) of 1.03 and a relative viability ([18]; first compound 0.01 µM) of 0.976. It also gave a relative viability ([18]; first compound 0.03162 µM) of 0.826, a relative viability ([18]; first compound 0.1 µM) of 0.892 and a relative viability ([19]; first compound 0.001 µM) of 0.408. It also gave a relative viability ([19]; first compound 0.003162 µM) of 0.469, a relative viability ([19]; first compound 0.01 µM) of 0.541 and a relative viability ([19]; first compound 0.03162 µM) of 0.354. For the same molecule, the relative viability ([19]; first compound 0.1 µM) was 0.444, the relative viability ([20]; first compound 0.001 µM) was 0.321 and the relative viability ([20]; first compound 0.003162 µM) was 0.293. It also gave a relative viability ([20]; first compound 0.01 µM) of 0.305, a relative viability ([20]; first compound 0.03162 µM) of 0.316 and a relative viability ([20]; first compound 0.1 µM) of 0.294. For the same molecule, the relative viability ([21]; first compound 0.001 µM) was 0.839, the relative viability ([21]; first compound 0.003162 µM) was 1.02 and the relative viability ([21]; first compound 0.01 µM) was 0.953. It also gave a relative viability ([21]; first compound 0.03162 µM) of 0.901, a relative viability ([21]; first compound 0.1 µM) of 0.784 and a relative viability ([22]; first compound 0.001 µM) of 0.761. For the same molecule, the relative viability ([22]; first compound 0.003162 µM) was 0.903, the relative viability ([22]; first compound 0.01 µM) was 0.969 and the relative viability ([22]; first compound 0.03162 µM) was 0.749. It also gave a relative viability ([22]; first compound 0.1 µM) of 0.8.
